Measured values as given in US9487481B2, “Bicyclic compounds” (BRISTOL-MYERS SQUIBB COMPANY, priority 2013, dated 2016).
Where “and” joins values, the source holds several entries; their conditions need not be identical. Equal values may be shown once.

Legend:
S1P1 [1] = target: T1, S1P1 (Homo sapiens, UniProt P21453); test: S1P1 Binding Assay (33P-S1P ligand, CHO membranes); details: membranes from CHO cells expressing human S1P1, 0.03 nM 33P-S1P
Protocol: Membranes were prepared from CHO cells expressing human S1P1. Cells pellets (1×10^9 cells/pellet) were suspended in buffer containing 20 mM HEPES (4-(2-hydroxyethyl)-1-piperazineethanesulfonic acid), pH 7.5, 50 mM NaCl, 2 mM EDTA (Ethylenediaminetetraacetic acid) and Protease Inhibitor cocktail (Roche), and disrupted on ice using the Polytron homogenizer. The homogenate was centrifuged at 20,000 rpm (48,000 g) and the supernatant was discarded. The membrane pellets were resuspended in buffer containing 50 mM HEPES, pH 7.5, 100 mM NaCl, 1 mM MgCl2, 2 mM EDTA and stored in aliquots at −80° C. after protein concentration determination.
Membranes (2 μg/well) and 0.03 nM final concentration of ^33P-S1P ligand (1 mCi/ml, Perkin Elmer or American Radiolabeled Chemicals) diluted in assay buffer (50 mM HEPES, pH7.4, 5 mM MgCl2, 1 mM CaCl2, 0.5% fatty acid free BSA (bovine serum albumin), 1 mM NaF) were added to the compound plates (384 FALCON® v-bottom plate (0.5 μl/well in a 11 point, 3-fold dilution). Binding was performed for 45 minutes at room temperature, terminated by collecting the membranes onto 384-well Millipore FB filter plates, and radioactivity was measured by TOPCOUNT®. The competition data of the test compounds over a range of concentrations was plotted as percentage inhibition of radioligand specific binding. […]

S1P1 [2] = target: T1, S1P1; test: Receptor [35S] GTPγS Binding Assay, S1P1/CHO cell membranes; format: biochemical; details: membranes prepared from S1P1/CHO cells
Protocol: (§2) Compounds were loaded in a 384 FALCON® v-bottom plate (0.5 μl/well in a 11 point, 3-fold dilution). Membranes prepared from S1P1/CHO cells or EDG3-Ga15-bla HEK293T cells (EDG3 equivalent S1P3) were added to the compound plate (40 μl/well, final protein 3 μg/well) with MULTIDROP®. [^35S]GTP (1250 Ci/mmol, Perkin Elmer) was diluted in assay buffer: 20 mM HEPES, pH7.5, 10 mM MgCl2, 150 mM NaCl, 1 mM EGTA (ethylene glycol tetraacetic acid), 1 mM DTT (Dithiothreitol), 10 μM GDP, 0.1% fatty acid free BSA, and 10 μg/ml Saponin to 0.4 nM. 40 μl of the [^35S] GTP solution was added to the compound plate with a final concentration of 0.2 nM. The reaction was kept at room temperature for 45 min. At the end of incubation, all the mixtures in the compound plate were transferred to Millipore 384-well FB filter plates via the VELOCITY11® Vprep liquid handler. The filter plate was washed with water 4 times by using the manifold Embla plate washer and dried at 60° C. for 45 min. MicroScint 20 scintillation fluid (30 μl) was added to each well for counting on the Packard TOPCOUNT®. EC50 is defined as the agonist concentration that corresponds to 50% of the Ymax (maximal response) obtained for each individual compound tested.
(§3) A larger value for the GTPγS S1P3 EC50 value indicated less activity in the GTPγS S1P3 binding assay.

EDG3 equivalent S1P3 = EDG3 equivalent S1P3 (Homo sapiens, UniProt Q99500); test: Receptor [35S] GTPγS Binding Assay, EDG3-Ga15-bla HEK293T cell membranes; format: biochemical; details: membranes prepared from EDG3-Ga15-bla HEK293T cells
Chain of EDG3 equivalent S1P3 (Q99500 whole entry): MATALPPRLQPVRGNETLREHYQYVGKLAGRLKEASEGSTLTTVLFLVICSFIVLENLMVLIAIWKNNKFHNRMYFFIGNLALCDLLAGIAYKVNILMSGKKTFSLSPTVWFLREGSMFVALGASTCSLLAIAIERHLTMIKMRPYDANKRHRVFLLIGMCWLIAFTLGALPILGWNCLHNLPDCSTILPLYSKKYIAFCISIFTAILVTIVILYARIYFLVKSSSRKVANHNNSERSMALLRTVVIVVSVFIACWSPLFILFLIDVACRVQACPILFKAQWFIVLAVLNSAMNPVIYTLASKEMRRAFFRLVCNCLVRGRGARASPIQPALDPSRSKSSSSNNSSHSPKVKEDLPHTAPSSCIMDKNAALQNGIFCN
Protocol: as §2, §3

circulating lymphocytes [3] = test: Mouse Blood Lymphocyte Reduction (BLR) Assay; format: in vivo; details: BALB/c mice, oral, 1 mg/kg, 24 hr post-dose
Protocol: (§1) Lewis rats were dosed orally with vehicle alone (polyethylene glycol 300, “PEG300”) or with 2-amino-2-[2-(4-octylphenyl)ethyl]-1,3-propanediol, hydrochloride (CAS: 162359-56-0) as a solution in the vehicle at doses of 0.1 mg/kg, 0.5 mg/kg and 3.0 mg/kg adjusted to reflect the free amount of test article. The results are provided in Table 4a and the level of lymphocyte reduction at 24 hours post-dose was maximal at 3.0 mg/kg. The percent reduction in lymphocytes is dose-related but the relationship is not linear, with non-proportional increases in dose being required to elicit sequentially greater reductions in lymphocyte counts. […] BALB/c mice were dosed orally with vehicle alone (polyethylene glycol 300, “PEG300”) or with Example 1, Example 2, Compound 6, Compound 8, or Comparative Compound 11. Compounds were dosed as a solution or suspension in the vehicle, adjusted to reflect the free amount of test article in the event that salt forms are utilized. Blood was drawn at 24 hr and blood lymphocyte counts were determined on an ADVIA® 120 Hematology Analyzer (Siemens Healthcare Diagnostics). The results were measured as a reduction in the percentage of circulating lymphocytes as compared to the vehicle treated group at the time of measurement. The results represent the average results of all animals within each treatment group (n=2-4).

mice = test: Pulmonary Toxicity Assay (BAL protein); format: in vivo; details: oral, 30 mg/kg, 24 hr post-dose; for Relative BAL protein vs. control: >1 = increased pulmonary toxicity
Protocol: The analysis of protein levels in bronchoalveolar lavage (BAL) fluid obtained from an animal were used to gauge pulmonary side effects. Increased levels of protein in BAL fluid were indicative of undesired pulmonary effects, such as pulmonary edema. Example 1, Example 2, Compound 6, Compound 8, and Compound 11 were administered orally to mice at a dose of 30 mg/kg. At 24 hours post dose, the mice were euthanized with intraperitoneal barbiturate overdose. The animals were placed in a supine position, a skin incision was made and blunt dissection followed to expose the trachea. The trachea was incised and a catheter was inserted 4-6 mm into the trachea. Phosphate-buffered saline (PBS; 1 mL/mouse) was infused into the lungs and then aspirated. The concentration of the BAL protein in the recovered BAL fluid was determined on an ADVIA® 1800 Chemistry Analyzer (Siemens Healthcare Diagnostics). The results represent the average results of all animals within each treatment group (n=2-4).
A value for the relative BAL protein versus control of greater than 1 indicated an increase in pulmonary toxicity compared to the administration of vehicle only. In this study, as reported in Table 5, the administration of Examples 1 and 2 gave relative BAL protein levels of 0.99 and 0.96, indicating no increase in the pulmonary toxicity. The administration of Compound 8 gave a relative BAL protein level of 1.03, which indicated slight or no increase in pulmonary toxicity. In contrast, administration of Compound 6 and Compound 11 gave relative BAL protein levels of 1.94 and 1.33, indicating increased pulmonary toxicity.

Male MRL/lpr mice = test: MRL/lpr Mouse Model of Spontaneous Lupus Erythematosus Assay; format: in vivo
Protocol: MRL/lpr mouse model of spontaneous lupus erythematosus assay is an animal model for spontaneous lupus erythematosus.
Male MRL/lpr mice (14 weeks old; Jackson Laboratories; n=12-13) were orally dosed with Example 2 (as a solution in vehicle) or vehicle alone (polyethylene glycol 300) twice a week for 11 weeks starting on day 0. Urine protein levels (by Albustix) were measured on day 0 and throughout the study. […] Additional groups of mice received a daily oral dose of dexamethasone (Dex) either independently or in combination with twice weekly dosing with Example 2. Urine protein levels (by Albustix) were measured on day 0 and throughout the study. […] All procedures involving animals were reviewed and approved by the Institutional Animal Care Use Committee.
Example 2 was tested in the MRL/lpr mouse model of spontaneous lupus erythematosus assay described hereinabove and the results are shown in Table 9.
Example 2 and dexamethasone (Dex) either independently or in combination, were tested in the MRL/lpr mouse model of spontaneous lupus erythematosus assay described hereinabove and the results are shown in Table 10.

GFP-tagged S1P1 receptor = target: T2, GFP-tagged S1P1 receptor (Homo sapiens, UniProt P21453); test: S1P1 Receptor Internalization Assay; format: cell-based; details: CHO-K1 cells expressing GFP-tagged S1P1, 45 min
T2 construct: expressed in transfected cells; host or cells: CHO-K1 cells
T2 sequence (P21453 whole entry): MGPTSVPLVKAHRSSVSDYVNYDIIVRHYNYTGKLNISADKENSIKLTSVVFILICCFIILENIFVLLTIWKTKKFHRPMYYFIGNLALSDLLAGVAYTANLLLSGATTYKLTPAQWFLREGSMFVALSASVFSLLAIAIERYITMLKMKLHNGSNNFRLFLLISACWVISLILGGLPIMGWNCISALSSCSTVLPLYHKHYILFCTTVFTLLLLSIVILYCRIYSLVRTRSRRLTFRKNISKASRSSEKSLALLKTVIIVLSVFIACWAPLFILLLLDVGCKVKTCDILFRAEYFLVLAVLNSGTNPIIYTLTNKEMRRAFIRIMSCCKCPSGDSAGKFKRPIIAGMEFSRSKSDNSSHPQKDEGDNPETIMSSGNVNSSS
Protocol: CHO-K1 cells expressing a GFP-tagged S1P1 receptor were plated in 384-well poly-D-lysine coated tissue culture plates at 4×10^3 cells/well in 50 μl assay media (F12 with L-glutamine, 10% charcoal/dextran-treated FBS, 1× penicillin-streptomycin, 1M HEPES). Cell plates were incubated overnight at 37° C./5% CO2. Test compound were introduced to the cell plate from a compound source plate at 11 point, 3 fold serial dilutions and then the assay plates were incubated at 37° C./5% CO2 for 45 min. Cells were fixed and stained with 6% formaldehyde and 15 μg/ml Hoechst dye in PBS (Ca^2+/Mg^2+ free) at room temperature for 15 minutes. Cell plates were washed 4 times with PBS (Ca^2+/Mg^2+ free) with addition of 50 μl/PBS prior to plate sealing. Images were acquired by the Cellomics ARRAYSCAN® VTI high content imager. Data analysis for EC50 determination relative to internal control compound was accomplished using the Compartmental Analysis BioApplication on the Array Scan. The EC50 is defined as the agonist concentration that corresponds to 50% of the Ymax (maximal response) obtained for each individual compound tested and was quantified using the 4 parameter logistic equation to fit the data.

Male Lewis rats = test: Rat Adjuvant Induced Arthritis Assay (AA); format: in vivo; details: prophylactic
Protocol: The rat adjuvant-induced arthritis model is an animal model for human rheumatoid arthritis.
Male Lewis rats (150-175 g; Harlan, n=8 treatment group) were immunized at the base of the tail with 100 μl of 10 mg/ml freshly ground Mycobacterium butyricum (Difco Laboratories) in incomplete Freund's adjuvant (sigma). Animals were dosed once daily with the test article (as a solution or suspension in the vehicle) or vehicle alone (polyethylene glycol 300, “PEG300”) starting from the day of immunization. The volumes of their hind paws were measured in a water displacement plethysmometer (Ugo Basile, Italy). The baseline paw measurements were taken before onset of the disease (between day 7 to day 10). The paw measurements were then taken three times a week until the end of the study on day 20 to 21. All procedures involving animals were reviewed and approved by the Institutional Animal Care Use Committee.
Example 2 of the present invention was tested in the Rat Adjuvant Induced Arthritis assay described hereinabove and the results are shown in Table 7.

CB-17 SCID mice = test: Mouse T Cell Transfer Induced Colitis Assay; format: in vivo; details: q.o.d. oral; for Inflammation/Damage (Histology), Mean: 6 wk
Protocol: The mouse T Cell transfer induced colitis assay is an animal model for human colitis.
Colitis was induced in CB-17 SCID mice by the adoptive transfer of FACS sorted CD4^+CD45RB^high T cells from BALB/c mice (3×10^5/mouse, i.p.). Disease activities were monitored once a week for the initial 3 weeks and 3×/week for the subsequent weeks on the basis of body weight, soft stool or diarrhea, and anorectal prolapse. Animals were dosed orally every other day (q.o.d.) with the test article or vehicle starting from the day of T cell transfer. Mice were sacrificed 6 wk after T cell reconstitution and analyzed for bowel inflammation based on histological examination of H&E stained colon tissues. All procedures involving animals were reviewed and approved by the Institutional Animal Care Use Committee.
Example 2 was tested in the mouse T cell transfer induced colitis model described hereinabove and the results are shown in Table 8.

circulating lymphocytes [4] = test: Rat Blood Lymphocyte Reduction (BLR) Assay; format: in vivo; details: Lewis rats, oral, 24 hr post-dose; for Percent reduction vs. control (rat blood lymphocytes): hydrochloride
Protocol: as §1

T1 sequence (P21453 whole entry): as above

CCCCCC[C@@H]1CCc2cc([C@H]3CC[C@](N)(COP(=O)(O)O)C3)ccc2C1 [Example 10, (1R,3 S)-1-Amino-3-((R)-6-hexyl-5,6,7,8-tetrahydronaphthalen-2-yl) cyclopentyl)methyl dihydrogen phosphate]
IC50 (S1P1 [1]): 0.01 nM
EC50 (S1P1 [2]): 0.9 nM
EC50 (EDG3 equivalent S1P3): > 62500 nM

CCCCCOc1ccc2cc([C@@H]3CC[C@](N)(CO)C3)ccc2c1 [Comparative Compound 11, reference compound]
Mouse blood lymphocytes, Compound Mean (circulating lymphocytes [3]): 2.18
Percent reduction vs. control (mouse blood lymphocytes) (circulating lymphocytes [3]): 52%
Mouse BAL protein level, Compound Mean (mice): 13.3 mg/dL
Relative BAL protein vs. control (mice): 1.33

CCCCCC[C@H]1CCc2cc([C@@H]3CC[C@](N)(CO)C3)ccc2C1 [Compound 6, ((1R,3R)-1-amino-3-((S)-6-hexyl-5,6,7,8-tetrahydronaphthalen-2-yl)cyclopentyl)methanol]
Mouse blood lymphocytes, Compound Mean (circulating lymphocytes [3]): 1.2
Percent reduction vs. control (mouse blood lymphocytes) (circulating lymphocytes [3]): 78%
Mouse BAL protein level, Compound Mean (mice): 14.3 mg/dL
Relative BAL protein vs. control (mice): 1.94 and 1.96

C[C@@H]1C[C@H]2[C@@H]3CCC4=CC(=O)C=C[C@]4(C)[C@@]3(F)[C@@H](O)C[C@]2(C)[C@@]1(O)C(=O)CO [Dex, dexamethasone, reference compound]
% Mice with Proteinurea > 100 mg/dL (Male MRL/lpr mice; 24 weeks of age, 0.1 mg/kg q.d. oral): 50%
% Mice with Proteinurea > 100 mg/dL (Male MRL/lpr mice; 24 weeks of age, 0.5 mg/kg q.d. oral): 10%

CCCCCC[C@@H]1CCc2cc([C@@H]3CC[C@](N)(COP(=O)(O)O)C3)ccc2C1 [Example 9, ((1R,3R)-1-Amino-3-((R)-6-hexyl-5,6,7,8-tetrahydronaphthalen-2-yl)cyclopentyl)methyl dihydrogen phosphate]
EC50 (GFP-tagged S1P1 receptor): 361 nM

CCCCCC[C@@H]1CCc2cc([C@H]3CC[C@](N)(CO)C3)ccc2C1 (single isomer, unassigned) [Example 2]
Mouse blood lymphocytes, Compound Mean (circulating lymphocytes [3]): 0.54
Percent reduction vs. control (mouse blood lymphocytes) (circulating lymphocytes [3]): 90%
Mouse BAL protein level, Compound Mean (mice): 8.0 mg/dL
Relative BAL protein vs. control (mice): 0.96
Paw Swelling on Day 20, Mean (Male Lewis rats; 0.15 mg/kg once daily oral): 1.64 mL
Paw Swelling on Day 20, Mean (Male Lewis rats; 0.5 mg/kg once daily oral): 0.70 mL
Paw Swelling on Day 20, Mean (Male Lewis rats; 1.5 mg/kg once daily oral): 0.16 mL
Week 6 Percent Body Weight Changes, Mean (from 100%) (CB-17 SCID mice; 1 mg/kg): 100% → 98.7%
Inflammation/Damage (Histology), Mean (CB-17 SCID mice; 1 mg/kg): 5.46
Week 6 Percent Body Weight Changes, Mean (from 100%) (CB-17 SCID mice; 5 mg/kg): 100% → 103.7%
Inflammation/Damage (Histology), Mean (CB-17 SCID mice; 5 mg/kg): 3.71
% Mice with Proteinurea > 100 mg/dL (Male MRL/lpr mice; 24 weeks of age, 2 mg/kg, 2x week oral): 20%
% Mice with Proteinurea > 100 mg/dL (Male MRL/lpr mice; 25 weeks of age, 0.05 mg/kg, 2x week oral): 25%
% Mice with Proteinurea > 100 mg/dL (Male MRL/lpr mice; 25 weeks of age, 0.4 mg/kg, 2x week oral): 17%
% Mice with Proteinurea > 100 mg/dL (Male MRL/lpr mice; 25 weeks of age, 2 mg/kg, 2x week oral): 10%

CCCCCC[C@H]1CCc2cc([C@H]3CC[C@](N)(CO)C3)ccc2C1 [Compound 8, ((1R,3S)-1-amino-3-((S)-6-hexyl-5,6,7,8-tetrahydronaphthalen-2-yl)cyclopentyl)methanol]
Mouse blood lymphocytes, Compound Mean (circulating lymphocytes [3]): 2.4
Percent reduction vs. control (mouse blood lymphocytes) (circulating lymphocytes [3]): 59%
Mouse BAL protein level, Compound Mean (mice): 7.5 mg/dL
Relative BAL protein vs. control (mice): 1.03

CCCCCCCCc1ccc(CCC(N)(CO)CO)cc1.Cl [2-amino-2-[2-(4-octylphenyl)ethyl]-1,3-propanediol, hydrochloride]
Rat blood lymphocytes, Compound Mean (circulating lymphocytes [4]; 0.1 mg/kg): 2.78
Percent reduction vs. control (rat blood lymphocytes) (circulating lymphocytes [4]; 0.1 mg/kg): 69%
Rat blood lymphocytes, Compound Mean (circulating lymphocytes [4]; 0.5 mg/kg): 1.64
Percent reduction vs. control (rat blood lymphocytes) (circulating lymphocytes [4]; 0.5 mg/kg): 82%
Rat blood lymphocytes, Compound Mean (circulating lymphocytes [4]; 3.0 mg/kg): 1.02
Percent reduction vs. control (rat blood lymphocytes) (circulating lymphocytes [4]; 3.0 mg/kg): 89%

CCCCCC[C@@H]1CCc2cc([C@@H]3CC[C@](N)(CO)C3)ccc2C1 (single isomer, unassigned) [Example 1]
Mouse blood lymphocytes, Compound Mean (circulating lymphocytes [3]): 0.7
Percent reduction vs. control (mouse blood lymphocytes) (circulating lymphocytes [3]): 88%
Mouse BAL protein level, Compound Mean (mice): 8.25 mg/dL
Relative BAL protein vs. control (mice): 0.99
